EP2332529A1, “Substituted aromatic diamines as ligands of vesicular glutamate transporter 1 and 2 (vGLUT1 and vGLUT2)” (Grünenthal GmbH, priority 2009, dated 2011)
Where two headings read alike, the source gives them in different places. One block for each molecule: values may come before it.

Legend:
[1] = system: vGLUT1- bzw. vGLUT2-Transporter; assay: Glutamate uptake in rat crude synaptic vesicles ([3H]-glutamate); assay type: biochemical, Ratte; settings: for vGLUT (Ratte), Hemmung [%]: test concentration not given
Source text: Die agonistische bzw. antagonistische Wirkung der zu untersuchenden Verbindungen am vGLUT1- bzw. vGLUT2-Transporter der Spezies Ratte kann mit folgendem Assay bestimmt werden.
Glutamat-Uptake in Rattenvesikel ('rat crude synaptic vesicles')
Die Präparation von Vesikeln wurde aus Rattengehirn-Homogenaten (männlichen Ratten, Stamm Wistar SPF, 150-250 g Gewicht) durchgeführt gemäß Roseth et al. (1995) J. Neurochem. 65: 96-103, der sich auf Whittaker et al. (1964) Biochem J. 90, 293-303 und Fykse und Fonnum (1988) J. Neurochem. 50: 1237-1242 bezieht.
Hierzu wurden frisch entnommene Rattengehirne in 0,32 M Saccharose, 10 mM TRIS-maleat, 1 mM EGTA, pH 7,4 (10 ml/g Frischgewicht) mit einem Potter-Homogenisator (Fa. Braun/Melsungen; 5 Kolbenhübe bei 800 Upm) unter Eiskühlung homogenisiert und anschließend für 10 Minuten bei 3.000 g und 4°C zentrifugiert. Der resultierende Überstand wurde bei 20.000 g für 30 Minuten bei 4°C zentrifugiert. Das entstandene Pellet wurde dann im Verhältnis 1:3 mit 10 mM TRIS-maleate, 0,1 mM EGTA, pH 7,4 osmotisch geschockt und die Suspension bei 17000g für 30 min (4°C) zentrifugiert. Die im Überstand verbliebenen Vesikel wurden nun auf einen Dichtegradienten aus 0,6 M Saccharose in 10 mM TRIS-maleat, 1 mM EGTA, pH 7.4 und 0.4 M Saccharose in 10 mM TRIS-maleat, 1 mM EGTA, pH 7.4 geschichtet. Eine Ultrazentrifugation der Gradienten im Ausschwingrotor bei 65000g für 2h (4°C) schloss sich an. Die Vesikel-Fraktion wurde von der 0.4 M Saccharose-Bande isoliert und im Uptake-Versuch eingesetzt.
Die Substratlösung für den Uptake von [^3H]-Glutamat bestand aus ATP (neutralisiert mit Trisma base; 2 mM im Endansatz), Glutamat (0.5 mM im Endansatz) und ^3H-Glutamat (0.5 µCi im Endansatz). In 14 ml-Reagiergefäßen (Sarstedt, Artikel-Nr.: 798438) wurden jeweils 0,3 ml Gesamtvolumina (n=2/Probe) pipettiert in der folgenden Reihenfolge: 1.) 165 µl Inkubationspuffer (110 mM Kaliumtartrat, 10 mM TRIS-maleat, pH 7,4, 4 mM MgCl2), 2.) 10 µl Testsubstanz oder Vehikelkontrolle oder blank, 3.) 100 µl synaptische Vesikel. Es schloss sich eine Vorinkubation von 15 min bei 30°C an (nur blank-Ansätze befanden sich hierbei auf Eis). Danach wurde der Uptake durch Zugabe von 25 µl der oben beschriebenen Substratlösung gestartet. Die Reaktion wurde nach 5 min durch Zugabe von 7,0 ml eiskalter 150 mM KCl gestoppt. Anschließend wurden die Proben mit Hilfe des Brandel Cell Harvesters Typ M-24R über einen Membranfilter der Porengröße 0,8 µm abgesaugt und zweimal mit eiskalter 150 mM KCl nachgewaschen. Die Messung erfolgte am beta-Counter nach 15 h in 10 ml Szintillatorflüssigkeit (Filter Count).

Sprague-Dawley Ratten = assay: Neuropathic pain in the rat, Bennett model (chronic constriction injury, cold allodynia); assay type: in vivo, Ratte
Procedure: Die Untersuchung auf Wirksamkeit im neuropathischen Schmerz wurde im Bennett-Modell (chronic constriction injury; Bennett und Xie, 1988, Pain 33: 87-107) untersucht.
Sprague-Dawley Ratten mit einem Gewicht von 140-160 g werden unter Nembutal-Narkose mit vier losen Ligaturen des rechten nervus ischiaticus versehen. Die Tiere entwickeln an der vom geschädigten Nerv innervierten Pfote eine Überempfindlichkeit, die nach einer Erholungsphase von einer Woche über etwa vier Wochen mittels einer 4°C kalten Metallplatte quantifiziert wird (Kälte-Allodynie). Die Tiere werden für einen Zeitraum von 2 min. auf dieser Platte beobachtet und die Anzahl der Wegziehreaktionen der geschädigten Pfote wird gemessen. Bezogen auf den Vorwert vor Substanzapplikation wird die Substanzwirkung über einen Zeitraum von einer Stunde an vier Zeitpunkten (15, 30, 45, 60 min. nach Applikation) bestimmt und die resultierend Fläche unter der Kurve (AUD) sowie die Hemmung der Kälte-Allodynie zu den einzelnen Messpunkten in Prozent Wirkung zur Vehikelkontrolle (AUD) bzw. zum Ausgangswert (Einzelmesspunkte) ausgedrückt (%MPE). Die Gruppengröße beträgt n=10, die Signifikanz einer anti-allodynischen Wirkung wird über eine Varianzanalyse (repeated measures ANOVA; * p ≤ 0.05; Armitage und Berry, 1987, Stat. Methods in Medical Research, London: Blackwell Scientific Publications) bestimmt.

NMRI-Mäuse = assay: Phenylquinone-induced writhing test in the mouse; assay type: in vivo; settings: 10 mg/kg
Source text: Die Untersuchung der Verbindungen der allgemeinen Formel (I) auf analgetische Wirksamkeit wurde im Phenylchinon-induzierten Writhing an der Maus, modifiziert nach I.C. Hendershot und J. Forsaith (1959) J. Pharmacol. Exp. Ther. 125, 237-240 durchgeführt. Die entsprechende Literaturbeschreibung wird hiermit als Referenz eingeführt und gilt als Teil der Offenbarung.
Dazu wurden männliche NMRI-Mäuse mit einem Gewicht von 25 bis 30 g verwendet. Gruppen von 10 Tieren pro Verbindungsdosis erhielten 10 Minuten nach intravenöser Gabe der zu untersuchenden Verbindungen 0,3 ml/Maus einer 0.02%igen wässrigen Lösung von Phenylchinon (Phenylbenzochinon, Fa. Sigma, Deisenhofen, Deutschland; Herstellung der Lösung unter Zusatz von 5 Gew.-% Ethanol und Aufbewahrung im Wasserbad bei 45°C) intraperitoneal appliziert. Die Tiere wurden einzeln in Beobachtungskäfige gesetzt. Mit Hilfe eines Drucktastenzählers wurde die Anzahl der schmerzinduzierten Streckbewegungen (sogenannte Writhingreaktionen = Durchdrücken des Körpers mit Abstrecken der Hinterextremitäten) 5 bis 20 Minuten nach der Phenylchinon-Gabe ausgezählt. Als Kontrolle wurden Tiere mit geführt, die Vehikellösung (i.v.) und Phenylchinon (i.p.)erhalten hatten. Alle Verbindungen wurden in der Standarddosierung von 10 mg/kg getestet. […]

Mäusen (NMRI) = assay: Formalin test in the mouse (second phase); assay type: in vivo; settings: Maus i.p., 21,5 mg/kg
Source text: Die Untersuchung zur Bestimmung der antinociceptiven Wirkung der Verbindungen der allgemeinen Formel (I) wird im Formalin-Test an männlichen Mäusen (NMRI, 25 bis 35 g Körpergewicht, Iffa, Credo, Belgien) durchgeführt.
Im Formalin-Test werden gemäß D. Dubuisson et al., Pain 1977, 4, 161-174 die erste (frühe) Phase (0 bis 15 Minuten nach der Formalin-Injektion) und die zweite (späte) Phase (15 bis 60 Minuten nach der Formalin-Injektion) unterschieden. Die frühe Phase stellt als direkte Reaktion auf die Formalin-Injektion ein Modell für Akutschmerz dar, während die späte Phase als Modell für persistierenden (chronischen) Schmerz angesehen wird (T. J. Coderre et al., Pain 1993, 52, 259-285). Die entsprechenden Literaturbeschreibungen werden hiermit als Referenz eingeführt und gelten als Teil der Offenbarung. […]
Anschließend wird für einen Untersuchungszeitraum von drei Minuten in der zweiten (späten) Phase des Formalin-Tests (21 bis 24 Minuten nach der Formalin-Injektion) das nociceptive Verhalten durch Beobachtung der Tiere kontinuierlich erfasst. Die Quantifizierung des Schmerzverhaltens erfolgt durch Summation der Sekunden, in denen die Tiere in dem Untersuchungszeitraum ein Lecken und Beißen der betroffenen Pfote zeigen. […]

[2] = compound freshly dissolved from the solid substance, read-out: vGLUT (Ratte), IC50-Fest

IC50 [1, 2]: 2350 nM
Molecule: 2,2'-(3,3'-Sulfonyl-bis-(4,1-phenylen)-bis-(azanediyl))-bis-(oxomethylen)-bis-(azanediyl)dibenzoesäure [Beispiel 10]
vGLUT (Ratte), Hemmung [%] [1]: 86%

Molecule: O=C(Cc1ccccc1)Nc1ccc(Cc2ccc(NC(=O)Cc3ccccc3)c(C(=O)O)c2)cc1C(=O)O [Beispiel 1, 5,5'-Methylen-bis(2-(2-phenylacetamido)benzoesäure)]
IC50 ([1]; read-out: vGLUT (Ratte), IC50): 9160 nM | vGLUT (Ratte), Hemmung [%] [1]: 61%

Molecule: CC(=O)Nc1cc(C(=O)c2ccc(C(=O)O)c(NC(C)=O)c2)ccc1C(=O)O [Beispiel 2, 4,4'-Carbonyl-bis(2-acetamidobenzoesäure)]
vGLUT (Ratte), Hemmung [%] [1]: 47%

IC50 ([1]; read-out: vGLUT (Ratte), IC50): 380 nM
Molecule: O=C(c1ccc(C(=O)O)c(NC(=O)c2cccc3ccccc23)c1)c1ccc(C(=O)O)c(NC(=O)c2cccc3ccccc23)c1 [Beispiel 3, 4,4'-Carbonyl-bis(2-(1-naphthamido)benzoesäure)]
vGLUT (Ratte), Hemmung [%] [1]: 97%

Molecule: Nc1ccccc1C(=O)Nc1ccc(-c2ccc(NC(=O)c3ccccc3N)c(C(=O)O)c2)cc1C(=O)O [Beispiel 4, 4,4'-Bis-(2-amino-benzoylamino)-biphenyl-3,3'-dicarbonsäure]
IC50 [1, 2]: 93 nM | IC50 ([1]; read-out: vGLUT (Ratte), IC50): 43.2 nM | vGLUT (Ratte), Hemmung [%] [1]: 99%

Molecule: O=C(O)c1cc(-c2ccc(NC(=O)c3cccc4ccccc34)c(C(=O)O)c2)ccc1NC(=O)c1cccc2ccccc12 [Beispiel 5, 4,4'-Bis-[(naphthalin-1-carbonyl)-amino]-biphenyl-3,3'-dicarbonsäure]
vGLUT (Ratte), Hemmung [%] [1]: 50%

Molecule: Nc1ccccc1C(=O)Nc1ccc(-c2ccc(NC(=O)c3ccccc3N)c(C(=O)O)c2)cc1C(=O)O [Beispiel 6, 4,4'-Bis-(2-aminobenzamido)biphenyl-3,3'-dicarbonsäure]
IC50 [1, 2]: 38 nM | IC50 ([1]; read-out: vGLUT (Ratte), IC50): 89.7 nM | vGLUT (Ratte), Hemmung [%] [1]: 101%

IC50 ([1]; read-out: vGLUT (Ratte), IC50): 2340 nM
Molecule: O=C(O)c1cc(NC(=O)c2cccc3ccccc23)c(C(=O)O)cc1NC(=O)c1cccc2ccccc12 [Beispiel 7, 2,5-Bis-[(naphthalin-1-carbonyl)-amino]-terephthalsäure]
vGLUT (Ratte), Hemmung [%] [1]: 78%

Molecule: Cc1ccc(S(=O)(=O)Nc2ccc(-c3ccc(NS(=O)(=O)c4ccc(C)cc4)c(C(=O)O)c3)cc2C(=O)O)cc1 [Beispiel 8, 4,4'-Bis-(4-methylphenylsulfonamid)biphenyl-3,3'-dicarbonsäure, Dinatriumsalz]
IC50 [1, 2]: 490 nM | vGLUT (Ratte), Hemmung [%] [1]: 92% | Bennett-Test Ratte; Hemmung [%] (Sprague-Dawley Ratten; Ratte, 4,64 mg/kg (i.v.)): 37%@ 4,64 mg/kg (i.v.) | Phenylchinon-Writhing-Test Maus i.v. [Anzahl Writhing-Reaktionen in 15 min. p. appl.] (NMRI-Mäuse; Kontrolle 9,1±0,41): 7,8±1,16@10 mg/kg, | Anzahl Tiere mit ≤ 3 Writhing-Reaktionen (NMRI-Mäuse; Maus i.v.): (Anzahl Tiere mit ≤ 3 Writhing-Reaktionen: 1) | Formalin-Test Maus i.p.; Hemmung [%] (Mäusen (NMRI)): 51%@21,5 mg/kg

Molecule: Cc1ccc(S(=O)(=O)Nc2ccc(Cc3ccc(NS(=O)(=O)c4ccc(C)cc4)c(C(=O)O)c3)cc2C(=O)O)cc1 [Beispiel 9, 5,5'-Methylen-bis(2-(4-methylphenylsulfonamido)benzoesäure)]
vGLUT (Ratte), Hemmung [%] [1]: 47%

Molecule: Cc1ccc(S(=O)(=O)Nc2ccc(-c3ccc(NS(=O)(=O)c4ccc(C)cc4)c(C(=O)O)c3)cc2C(=O)O)cc1 [Beispiel 11, 4,4'-Bis(tolyl-4-sulfonylamino)biphenyl-3,3'-dicarbonsäure]
IC50 [1, 2]: 1530 nM | vGLUT (Ratte), Hemmung [%] [1]: 97%

Molecule: O=C(Nc1ccc(-c2ccc(NC(=O)c3ccccc3)c(C(=O)[O-])c2)cc1C(=O)[O-])c1ccccc1.[Na+].[Na+] [Beispiel 12, 4,4'-Bis-(benzamido)-biphenyl-3,3'-dicarbonsäure, Dinatriumsalz]
IC50 [1, 2]: 39 nM | vGLUT (Ratte), Hemmung [%] [1]: 102% | Bennett-Test Ratte; Hemmung [%] (Sprague-Dawley Ratten; Ratte, 0,2 mg/kg/5 ml (i.p)): 38%@0,2 mg/kg/5 ml (i.p)

Molecule: Nc1ccccc1C(=O)Nc1ccc(-c2ccc(NC(=O)c3ccccc3N)c(C(=O)O)c2)cc1C(=O)O [Beispiel 13, 4,4'-Bis-(2-aminobenzamido)biphenyl-3,3'-dicarbonsäure, Dinatriumsalz]
IC50 [1, 2]: 600 nM | vGLUT (Ratte), Hemmung [%] [1]: 96%

Molecule: Nc1ccc(-c2ccc(N)c(C(=O)O)c2)cc1C(=O)O [Beispiel 14, 4,4'-Bisaminobiphenyl-3,3'-dicarbonsäure, Dinatriumsalz]
IC50 [1, 2]: 47800 nM | vGLUT (Ratte), Hemmung [%] [1]: 24%
